Assay results from paper PMC3045100, “Cell-Penetrating Penta-Peptides (CPP5s): Measurement of Cell Entry and Protein-Transduction Activity” (Pharmaceuticals, 2010).
Residues, ends and D or L forms follow the SMILES beside them. *: point of attachment. 5FAM = O=C1OC2(c3ccc(O)cc3Oc3cc(O)ccc32)c2ccc(C(=O)*)cc21

Tested on: lysosomes of HeLa cells and DAMI cells
Test: Co-localization of Fam-VPTLK with lysosomes (LysoTracker red)
Type: cell-based
Conditions: Fam-VPTLK 50 μM and LysoTracker 100 nM, 1 h, 37 °C, microscopy
From the text: Lysosomes are known to contain molecules which have entered the cell through pinocytosis. To determine whether CPP5s use pinocytotic pathways for their cell entry, the localizations of Fam-labeled CPP5s and lysosomes (labeled by LysoTracker® Red) were compared. […] In contrast, FITC-labeled transferrin and LysoTracker-Red co-localized extensively, which is consistent with the understanding that transferrin enters cells through receptor-mediated endocytosis (Figure 2c).
Figure 2 Mechanism of cell entry of CPP5s. a and b. […] Microscopic analysis of the co-localization of Fam-VPTLK with lysosome-staining dye (LysoTracker™ red DND-99, L7528 Invitrogen). Hela cells (a) and DAMI cells (b) were incubated with Fam-VPTLK (50 μM) and LysoTracker (100 nM) for 1 h at 37 °C. c. FITC-labeled Transferin (FITC-Transferin) co-localized with lysosome. HeLa cells were incubaled with FITC-transferin (100 nM) and LysoTracker (100 nM) for 1 h at 37 °C. d. […] Cells were incubated with peptides for 1 h and the cellular fluorescence intensity was measured by fluorescence microscopy equipped with image analysis software (for Fam-labeled peptides) or FACS (for Tamra-labeled peptides) as described in Experimental Procedures. […] The results are shown as percentages of the fluorescence intensity of inhibitor-treated cells (the intensity of non-treated cells is designated as 100%). […]

Row | Compound | Co-localization with lysosomes
1 | CC(C)C[C@H](NC(=O)[C@@H](NC(=O)[C@@H]1CCCN1C(=O)[C@@H](NC(=O)c1ccc2c(c1)C(=O)OC21c2ccc(O)cc2Oc2cc(O)ccc21)C(C)C)[C@@H](C)O)C(=O)N[C@@H](CCCCN)C(=O)O [Fam-VPTLK] (5FAM-VPTLK-OH) | partially co-localizes with lysosomes

Tested on: DAMI cells
Test: Cell-penetration activity of Fam-labeled CPP5s, cellular fluorescence by FACS and/or microscopy
Type: cell-based, human
Parameters: key to Cell Penetration, cell entry confirmed by microscopy only: Cell entry of some peptides was confirmed by microscopy only, and these peptides are indicated with a ‘+’ without a percentage value
Conditions: peptides Fam-labeled on the N-terminus, 200 μM, 3 h, 37 °C, fluorescence intensity of cells by FACS, mean of triplicate samples
Procedure: Figure 1 Cell-penetration activity of CPP5s. a. List of cell-penetrating penta-peptides (CPP5s). […] Peptide sequences are color-coded to show the constant amphipathic amino acid arrangement in each CPP5. Cell-penetration activity was determined by fluorescence intensity of cells (DAMI cells: a human megakaryocytic cancer cell line) incubated with fluorescein (Fam)-labeled peptides (200 μM) for 3 h at 37 °C as described in Experimental Procedures. Fam was labeled on the N-terminus of all peptides examined. Cells were analyzed by FACS and/or microscopy. The activity of each peptide is shown as a percentage of the activity of KLPVM. Each value represents the mean of triplicate samples. Cell entry of some peptides was confirmed by microscopy only, and these peptides are indicated with a ‘+’ without a percentage value. For cytoprotective activity (right column), the information is based on previous studies and the activity was determined by the protection of cells from Bax overexpression and other apoptotic stimuli such as etoposide treatment. b to e. Cell entry of Fam-labeled VPTLK, KLPVM, TAT, and poly-arginine (R8). HeLa cells were incubated with Fam-labeled VPTLK, KLPVM (200 μM), Fam-TAT (10 μM), and Fam-R8 (10 μM) for 1 h at 37 °C. Images are at 20× magnification. f. Comparison of the cytotoxicity of CPP5 and TAT. Primary cultured mouse embryonic fibroblast (MEF) cells were treated with various concentrations of peptides for 24 h as indicated. Then, apoptosis was analyzed as described in Experimental Procedures. Each bar represents the mean of triplicate samples and standard error. TEXT PRINTED IN THE PICTURE: (a) VPMLK: Cell Penetration (%): 97 ± 4.3; Cytoprotection: + | (a) VPTLK: Cell Penetration (%): 61 ± 1.7; Cytoprotection: + | (a) VPALR: Cell Penetration (%): 79 ± 1.5; Cytoprotection: + | (a) VSALK: Cell Penetration (%): 90 ± 3; Cytoprotection: N.D. | (a) PMLKE: Cell Penetration (%): 65 ± 3.7; Cytoprotection: + | (a) VPALK: Cell Penetration (%): 71 ± 2.2; Cytoprotection: + | (a) VSLKK: Cell Penetration (%): +; Cytoprotection: - | (a) VSGKK: Cell Penetration (%): +; Cytoprotection: - | (a) KLPVM: Cell Penetration (%): 100 ± 2.3; Cytoprotection: - | (a) IPMIK: Cell Penetration (%): 47 ± 1.4; Cytoprotection: - | (a) KLGVM: Cell Penetration (%): +; Cytoprotection: - | (a) KLPVT: Cell Penetration (%): +; Cytoprotection: - | (a) VPMIK: Cell Penetration (%): +; Cytoprotection: N.D. | (a) IPALK: Cell Penetration (%): +; Cytoprotection: N.D. | (a) IPMLK: Cell Penetration (%): +; Cytoprotection: N.D. | (a) VPTLQ: Cell Penetration (%): 70 ± 4; Cytoprotection: - | (a) QLPVM: Cell Penetration (%): +; Cytoprotection: - | (a) ELPVM: Cell Penetration (%): +; Cytoprotection: - | (a) VPTLE: Cell Penetration (%): 80 ± 1.9; Cytoprotection: N.D.
CPP5s that were designed based on the Bax-binding domain of Ku70 of several species are named Bax-Inhibiting Peptides (BIPs); they are VPMLK, PMLKE, VPTLK, VPALR, and VPALK. VPMLK and PMLKE were designed from human Ku70, and the same sequence exists in the Ku70 homologues of dog and monkey. VPTLK and VPALR are based on mouse and rat Ku70, respectively. VPALK was designed from cattle Ku70, and the same sequence exists in Ku70 of the African clawed frog. Cytoprotective activities of these BIPs have been previously reported, both in cell culture and animal models. […] The observed variation in cell-entering activity of Fam-labeled-CPP5s is shown in Figure 1a as a percentage of the activity of KLPVM. In all cases, Fam was attached to the N-terminal amino acid. For some CPP5s, cell-penetration activity was confirmed by detection of an intracellular fluorescent signal by microscopy. These latter results are indicated with ‘+’ symbols, and a quantitative comparison with the activity of KLPVM was not performed. […]

Row | Compound | Cell Penetration (%), percentage of the activity of KLPVM [%]
2 | PMLKE | 65 ± 3.7
3 | IPMIK [cell-penetrating penta-peptide (CPP5)] | 47 ± 1.4
4 | VPMLK | 97 ± 4.3
5 | VSALK [cell-penetrating penta-peptide (CPP5)] | 90 ± 3
6 | VPALR | 79 ± 1.5
7 | VPTLQ [cell-penetrating penta-peptide (CPP5)] | 70 ± 4
8 | VPTLE [cell-penetrating penta-peptide (CPP5)] | 80 ± 1.9
9 | VPALK | 71 ± 2.2
10 | KLPVM | 100 ± 2.3

Same assay, conditions: peptides Fam-labeled on the N-terminus, 200 μM, 3 h, 37 °C, intracellular fluorescent signal by microscopy, no comparison with KLPVM

Row | Compound | Cell Penetration, cell entry confirmed by microscopy only
11 | IPALK [cell-penetrating penta-peptide (CPP5)] | +
12 | VSLKK [cell-penetrating penta-peptide (CPP5)] | +
13 | ELPVM [cell-penetrating penta-peptide (CPP5)] | +
14 | KLGVM [cell-penetrating penta-peptide (CPP5)] | +
15 | IPMLK [cell-penetrating penta-peptide (CPP5)] | +
16 | QLPVM [cell-penetrating penta-peptide (CPP5)] | +
17 | VPMIK [cell-penetrating penta-peptide (CPP5)] | +
18 | VSGKK [cell-penetrating penta-peptide (CPP5)] | +
19 | KLPVT [cell-penetrating penta-peptide (CPP5)] | +

Tested on: HeLa cells
Test: Effect of pinocytosis and endocytosis inhibitors on cell entry of Fam- or Tamra-labeled peptides
Type: cell-based
Conditions: serum-free DMEM, cytochalasin D 10 µM 30 min pre-treatment, then Tamra-labeled peptide 1 h, VPTLK 30 μM, R8 10 μM, FACS, mean of three experiments and standard error
Procedure: HeLa cells were incubated with each inhibitor in serum-free DMEM for 30 min, followed by incubation for 1 h with Fam-labeled CPP5 peptides (30 μM). Then, the cells were extensively washed with Hanks’ Buffered Salt Solution (HBSS) and complete DMEM, prior to the detection of fluorescence by microscopy and FACS. None of amiloride, chlorpromazine, cytochalasin D, Filipin III, nocodazole and methyl-beta-cyclodextrin blocked the entry of Fam-labeled VPTLK and KLPVM into HeLa cells. […] As a control experiment to validate the effectiveness of these inhibitors, FITC-transferrin (for chlorpromazine) and rhodamine-labeled EGF (for cytochalasin D and amiloride) were used. […] To compare the cell-penetrating mechanism between CPP5s and arginine-rich CPPs, the uptake of TAT and R8 was also examined in the presence of these inhibitors.
Figure 2 Mechanism of cell entry of CPP5s. a and b. […] Cells were incubated with peptides for 1 h and the cellular fluorescence intensity was measured by fluorescence microscopy equipped with image analysis software (for Fam-labeled peptides) or FACS (for Tamra-labeled peptides) as described in Experimental Procedures. […] The results are shown as percentages of the fluorescence intensity of inhibitor-treated cells (the intensity of non-treated cells is designated as 100%). […]

Row | Compound | Relative Fluorescence Intensity (No Inhibitor=100%), Cytochalasin D, Tamra-labeled peptides [%]
20 | Tamra-VPTLK [Tamra-labeled VPTLK] | 57±4

Tested on: Jurkat cells
Test: Cell entry in cells lacking caveolin-mediated endocytosis
Type: cell-based
Conditions: cells reported to lack caveolin-mediated endocytotic activity; data not shown
From the text: Chinese hamster ovary (CHO) A745 cells lack proteoglycans in the plasma membrane, and this cell line has been used to determine whether proteoglycans are required for CPP entry. […] (Figure 3c and d). The cell-penetrating activity of CPP5s was also examined in Jurkat cells that are reported to lack caveolin-mediated endocytotic activity.

Row | Compound | Entry into Jurkat cells
21 | CSCC[C@H](NC(=O)[C@@H](NC(=O)[C@@H]1CCCN1C(=O)[C@H](CC(C)C)NC(=O)[C@H](CCCCN)NC(=O)c1ccc2c(c1)C(=O)OC21c2ccc(O)cc2Oc2cc(O)ccc21)C(C)C)C(=O)O [Fam-KLPVM] (5FAM-KLPVM-OH) | able to enter Jurkat cells
22 | CC(C)C[C@H](NC(=O)[C@@H](NC(=O)[C@@H]1CCCN1C(=O)[C@@H](NC(=O)c1ccc2c(c1)C(=O)OC21c2ccc(O)cc2Oc2cc(O)ccc21)C(C)C)[C@@H](C)O)C(=O)N[C@@H](CCCCN)C(=O)O [Fam-VPTLK] (5FAM-VPTLK-OH) | able to enter Jurkat cells

Tested on: Primary cultured mouse embryonic fibroblast (MEF) cells
Test: Cytotoxicity (apoptosis, Hoechst nuclear staining) of CPP5 and TAT
Type: cell-based
Conditions: not given
Procedure: List of cell-penetrating penta-peptides (CPP5s). […] Peptide sequences are color-coded to show the constant amphipathic amino acid arrangement in each CPP5. […] Fam was labeled on the N-terminus of all peptides examined. Cells were analyzed by FACS and/or microscopy. The activity of each peptide is shown as a percentage of the activity of KLPVM. Each value represents the mean of triplicate samples. Cell entry of some peptides was confirmed by microscopy only, and these peptides are indicated with a '+' without a percentage value. For cytoprotective activity (right column), the information is based on previous studies and the activity was determined by the protection of cells from Bax overexpression and other apoptotic stimuli such as etoposide treatment. b to e. Cell entry of Fam-labeled […], and poly-arginine (R8). […] Comparison of the cytotoxicity of CPP5 and TAT. Primary cultured mouse embryonic fibroblast (MEF) cells were treated with various concentrations of peptides for 24 h as indicated. Then, apoptosis was analyzed as described in Experimental Procedures. Each bar represents the mean of triplicate samples and standard error.

Row | Compound | Cytotoxic effect at 1.6 mM in the cell culture medium
23 | KLPVM | did not show significant cytotoxic effects

Tested on: HeLa cells
Test: FACS analysis of cell penetration of Fam-VPTLK versus medium concentration
Type: cell-based
Conditions: 3 h, up to 1.6 mM in medium, triplicate samples
Procedure: For examination of the cell-penetrating activity of 5,6-carboxyfluorescein (Fam)-labeled CPP5 peptides (Fam-VPMLK, Fam-VPTLK), DAMI cells and HeLa cells (5.0×10^4 cells/mL) were incubated with different concentrations of Fam-labeled peptides for different time periods. Excess peptides were removed by extensive washing with Hanks’ buffered saline solution (HBSS) as previously reported and cellular entry of Fam-labeled peptides was analyzed using a fluorescence microscope (Nikon; TE200), a confocal scanning laser microscope (Leica; TCS SP2), and a FACS instrument (XL Aria), or a Coulter EPICS® XL-MCR.

Row | Compound | Cell entry of Fam-VPTLK as a function of medium concentration
24 | CC(C)C[C@H](NC(=O)[C@@H](NC(=O)[C@@H]1CCCN1C(=O)[C@@H](NC(=O)c1ccc2c(c1)C(=O)OC21c2ccc(O)cc2Oc2cc(O)ccc21)C(C)C)[C@@H](C)O)C(=O)N[C@@H](CCCCN)C(=O)O [Fam-VPTLK] (5FAM-VPTLK-OH) | linear increase up to the maximum concentration examined
